In patent US20250134861A1, “COMPOSITIONS COMPRISING 5-METHOXY-N,N-DIMETHYLTRYPTAMINE (5-MEO-DMT) FOR USE IN TREATING MENTAL DISORDERS” (GH RESEARCH IRELAND LIMITED, priority 2019, published 2025):

How the values were obtained:
[1] = test system: patients with treatment-resistant major depressive disorder; test: Clinical trial of inhaled 5-MeO-DMT in TRD patients: intensity of the psychedelic effects (MEQ30, ASC, PPEQ); type: in vivo, human; conditions: single 12 mg inhaled dose
Description: The following questionnaire is applied in situations where the acute psychedelic experience after treatment with 5-MeO-DMT needs to be quantified. At the end of relevant treatment sessions, the patient is handed a paper form and asked to rate the degree to which at any time during that session they experienced any of the phenomena listed below using the scale listed below. The MEQ30 is then computed and the occurrence of a peak psychedelic experience is then evaluated as described under scoring instructions.
The score for each individual subscale is computed by calculating the average score (from the scale of 0 to 5) for the phenomena belonging to the subscale as listed below.
The MEQ30-total score is computed by taking the average response to all phenomena. Patients or probands with a score≥60% of the maximum possible score on each of the four subscales of the MEQ30 are considered to have experienced a “peak psychedelic experience”.
The Peak Psychedelic Experience Questionnaire (PPEQ) has been developed by the inventor as an improved alternative to the oceanic boundlessness dimension of the ASC and the MEQ30 to allow a simpler and quicker assessment of the intensity of a psychedelic experience.

[2] = test system: patients with treatment-resistant major depressive disorder; test: Clinical trial of inhaled 5-MeO-DMT in TRD patients: safety and tolerability; type: in vivo, human
[3] = test system: patients with treatment-resistant major depressive disorder; test: Clinical trial of inhaled 5-MeO-DMT in TRD patients: depression severity and psychiatric symptom scales
[4] = both patients, single 12 mg inhaled dose
[5] = Patient 1, 2 h after single 12 mg inhaled dose, baseline 1
[6] = Patient 1, 2 h after single 12 mg inhaled dose, baseline 5
[7] = Patient 1, 1 d after single 12 mg inhaled dose, baseline 1
[8] = Patient 1, 1 d after single 12 mg inhaled dose, baseline 5
[9] = Patient 1, 7 d after single 12 mg inhaled dose, baseline 1
[10] = Patient 1, 7 d after single 12 mg inhaled dose, baseline 5
[11] = Patient 2, 2 h after single 12 mg inhaled dose, baseline 5
[12] = Patient 2, 1 d after single 12 mg inhaled dose, baseline 5
[13] = Patient 2, 7 d after single 12 mg inhaled dose, baseline 5
[14] = both patients, after single 12 mg inhaled dose
[15] = both patients, all assessment time points (2 h, 1 d, 7 d) after single 12 mg inhaled dose

## COc1ccc2[nH]cc(CCN(C)C)c2c1 [5-MeO-DMT, 5-methoxy-N,N-dimethyltryptamine]
[1]; Patient 1
  PPE achieved (ASC: at least 60% of the maximum possible score of the Oceanic Boundlessness dimension): Yes
  PPE achieved (MEQ30: at least 60% of the maximum possible score in each of the four subscales): Yes
  PPE achieved (PPEQ Total Score of at least 75): Yes
[1]; Patient 2
  PPE achieved (ASC: at least 60% of the maximum possible score of the Oceanic Boundlessness dimension): No
  PPE achieved (MEQ30: at least 60% of the maximum possible score in each of the four subscales): Yes
  PPE achieved (PPEQ Total Score of at least 75): Yes
[1]; both patients
  Onset of the first psychedelic symptoms after the inhalation: within a few seconds
[2]; Patient 1, single 12 mg inhaled dose, Day 1
  Reported adverse events: Headache, Flashback
[2]; Patient 1, single 12 mg inhaled dose, Day 7
  Reported adverse events: Headache
[2]; Patient 1, single 12 mg inhaled dose, administration day
  Reported adverse events: Dizziness
[2]; Patient 2, single 12 mg inhaled dose, Day 1
  Reported adverse events: Headache
[2]; Patient 2, single 12 mg inhaled dose, Day 7
  Reported adverse events: None reported
[2]; Patient 2, single 12 mg inhaled dose, administration day
  Reported adverse events: None reported
[2]; both patients, ECG at 3 hours, laboratory at 3 hours and 7 days, CADSS at 3 hours, 1 day, 7 days, cognitive tests at 1 day and 7 days
  Assessments of ECG, safety laboratory analyses, CADSS and cognitive tests (PVT, DSST): unremarkable
[2]; both patients, shortly after single 12 mg inhaled dose, no other noteworthy changes
  Changes in vital parameters: temporary, not clinically relevant increase in heart rate and blood pressure
[2]; [4]
  Severity and course of reported adverse events: mild, short-lasting and resolved spontaneously
  Tolerability of the inhalation procedure: well tolerated with no inhalation-related adverse events
[3]; Patient 1, 2 h after single 12 mg inhaled dose
  PGI-I (7-point scale; 1, Very much improved; 2, Much improved; 7, Very much worse): 1
[3]; [5]
  BPRS Unusual thought content (1-7): 1
  MADRS suicidal thoughts item (0 to 6): 0
[3]; Patient 1, 2 h after single 12 mg inhaled dose, baseline 3
  BPRS Somatic concern (1-7): 2
[3]; Patient 1, 2 h after single 12 mg inhaled dose, baseline 4
  BPRS Tension (1-7): 3
[3]; [6]
  BPRS Guilt feelings (1-7): 1
  PGI-S (7-point scale; 1, Normal, not at all ill; 7, Extremely ill): 1
[3]; Patient 1, 2 h after single 12 mg inhaled dose, baseline 6
  BPRS Depressive Mood (1-7): 2
[3]; Patient 1, 2 h after single 12 mg inhaled dose, baseline 7
  BPRS Anxiety (1-7): 2
[3]; Patient 1, 2 h after single 12 mg inhaled dose, baseline 31, sleep item carried forward from baseline
  MADRS (overall score 0 to 60): 10
[3]; Patient 1, 2 h after single 12 mg inhaled dose, baseline 42
  BPRS (total, 18 symptoms each rated 1-7): 27
[3]; Patient 1, 2 h after single 12 mg inhaled dose, baseline Yes
  C-SSRS Suicidal Ideation (any of the suicidal ideation items present): No
[3]; Patient 1, 1 d after single 12 mg inhaled dose
  PGI-I (7-point scale; 1, Very much improved; 2, Much improved; 7, Very much worse): 1
[3]; [7]
  BPRS Unusual thought content (1-7): 1
  MADRS suicidal thoughts item (0 to 6): 0
[3]; Patient 1, 1 d after single 12 mg inhaled dose, baseline 3
  BPRS Somatic concern (1-7): 1
[3]; Patient 1, 1 d after single 12 mg inhaled dose, baseline 4
  BPRS Tension (1-7): 1
[3]; [8]
  BPRS Guilt feelings (1-7): 1
  PGI-S (7-point scale; 1, Normal, not at all ill; 7, Extremely ill): 1
[3]; Patient 1, 1 d after single 12 mg inhaled dose, baseline 6
  BPRS Depressive Mood (1-7): 1
[3]; Patient 1, 1 d after single 12 mg inhaled dose, baseline 7
  BPRS Anxiety (1-7): 1
[3]; Patient 1, 1 d after single 12 mg inhaled dose, baseline 31
  MADRS (overall score 0 to 60): 8
[3]; Patient 1, 1 d after single 12 mg inhaled dose, baseline 42
  BPRS (total, 18 symptoms each rated 1-7): 18
[3]; Patient 1, 1 d after single 12 mg inhaled dose, baseline Yes
  C-SSRS Suicidal Ideation (any of the suicidal ideation items present): No
[3]; Patient 1, 7 d after single 12 mg inhaled dose
  PGI-I (7-point scale; 1, Very much improved; 2, Much improved; 7, Very much worse): 1
[3]; [9]
  BPRS Unusual thought content (1-7): 1
  MADRS suicidal thoughts item (0 to 6): 0
[3]; Patient 1, 7 d after single 12 mg inhaled dose, baseline 3
  BPRS Somatic concern (1-7): 1
[3]; Patient 1, 7 d after single 12 mg inhaled dose, baseline 4
  BPRS Tension (1-7): 1
[3]; [10]
  BPRS Guilt feelings (1-7): 1
  PGI-S (7-point scale; 1, Normal, not at all ill; 7, Extremely ill): 1
[3]; Patient 1, 7 d after single 12 mg inhaled dose, baseline 6
  BPRS Depressive Mood (1-7): 1
[3]; Patient 1, 7 d after single 12 mg inhaled dose, baseline 7
  BPRS Anxiety (1-7): 1
[3]; Patient 1, 7 d after single 12 mg inhaled dose, baseline 31
  MADRS (overall score 0 to 60): 3
[3]; Patient 1, 7 d after single 12 mg inhaled dose, baseline 42
  BPRS (total, 18 symptoms each rated 1-7): 18
[3]; Patient 1, 7 d after single 12 mg inhaled dose, baseline Yes
  C-SSRS Suicidal Ideation (any of the suicidal ideation items present): No
[3]; Patient 2, 2 h after single 12 mg inhaled dose
  PGI-I (7-point scale; 1, Very much improved; 2, Much improved; 7, Very much worse): 2
[3]; Patient 2, 2 h after single 12 mg inhaled dose, baseline 1
  MADRS suicidal thoughts item (0 to 6): 0
[3]; Patient 2, 2 h after single 12 mg inhaled dose, baseline 3
  BPRS Tension (1-7): 1
[3]; Patient 2, 2 h after single 12 mg inhaled dose, baseline 4
  BPRS Somatic concern (1-7): 1
[3]; [11]
  BPRS Anxiety (1-7): 2
  BPRS Depressive Mood (1-7): 3
  BPRS Guilt feelings (1-7): 1
  PGI-S (7-point scale; 1, Normal, not at all ill; 7, Extremely ill): 1
[3]; Patient 2, 2 h after single 12 mg inhaled dose, baseline 6
  BPRS Unusual thought content (1-7): 1
[3]; Patient 2, 2 h after single 12 mg inhaled dose, baseline 33, sleep item carried forward from baseline
  MADRS (overall score 0 to 60): 9
[3]; Patient 2, 2 h after single 12 mg inhaled dose, baseline 45
  BPRS (total, 18 symptoms each rated 1-7): 26
[3]; Patient 2, 2 h after single 12 mg inhaled dose, baseline No
  C-SSRS Suicidal Ideation (any of the suicidal ideation items present): No
[3]; Patient 2, 1 d after single 12 mg inhaled dose
  PGI-I (7-point scale; 1, Very much improved; 2, Much improved; 7, Very much worse): 2
[3]; Patient 2, 1 d after single 12 mg inhaled dose, baseline 1
  MADRS suicidal thoughts item (0 to 6): 1
[3]; Patient 2, 1 d after single 12 mg inhaled dose, baseline 3
  BPRS Tension (1-7): 1
[3]; Patient 2, 1 d after single 12 mg inhaled dose, baseline 4
  BPRS Somatic concern (1-7): 1
[3]; [12]
  BPRS Anxiety (1-7): 1
  BPRS Depressive Mood (1-7): 1
  BPRS Guilt feelings (1-7): 1
  PGI-S (7-point scale; 1, Normal, not at all ill; 7, Extremely ill): 1
[3]; Patient 2, 1 d after single 12 mg inhaled dose, baseline 6
  BPRS Unusual thought content (1-7): 1
[3]; Patient 2, 1 d after single 12 mg inhaled dose, baseline 33
  MADRS (overall score 0 to 60): 5
[3]; Patient 2, 1 d after single 12 mg inhaled dose, baseline 45
  BPRS (total, 18 symptoms each rated 1-7): 19
[3]; Patient 2, 1 d after single 12 mg inhaled dose, baseline No
  C-SSRS Suicidal Ideation (any of the suicidal ideation items present): No
[3]; Patient 2, 7 d after single 12 mg inhaled dose
  PGI-I (7-point scale; 1, Very much improved; 2, Much improved; 7, Very much worse): 2
[3]; Patient 2, 7 d after single 12 mg inhaled dose, baseline 1
  MADRS suicidal thoughts item (0 to 6): 0
[3]; Patient 2, 7 d after single 12 mg inhaled dose, baseline 3
  BPRS Tension (1-7): 1
[3]; Patient 2, 7 d after single 12 mg inhaled dose, baseline 4
  BPRS Somatic concern (1-7): 1
[3]; [13]
  BPRS Anxiety (1-7): 1
  BPRS Depressive Mood (1-7): 1
  BPRS Guilt feelings (1-7): 1
  PGI-S (7-point scale; 1, Normal, not at all ill; 7, Extremely ill): 1
[3]; Patient 2, 7 d after single 12 mg inhaled dose, baseline 6
  BPRS Unusual thought content (1-7): 1
[3]; Patient 2, 7 d after single 12 mg inhaled dose, baseline 33
  MADRS (overall score 0 to 60): 5
[3]; Patient 2, 7 d after single 12 mg inhaled dose, baseline 45
  BPRS (total, 18 symptoms each rated 1-7): 18
[3]; Patient 2, 7 d after single 12 mg inhaled dose, baseline No
  C-SSRS Suicidal Ideation (any of the suicidal ideation items present): No
[3]; [14]
  Other general psychiatric symptoms assessed by the BPRS (somatic concern, anxiety, guilt, tension): improved
  Ratings for suicidality (suicidal thoughts item of the MADRS, C-SSRS Suicidal Ideation items): improved
[3]; [15]
  MADRS remission (MADRS total score equal or less than 10): fulfilled standard criteria
  MADRS response (at least 50% improvement from baseline): fulfilled standard criteria
[3]; [4]
  Time to clinical remission after a single administration: ≤ 2 h
  Time to clinical response after administration: ≤ 2 h
